Assay results as given in patent US20070010402A1, “Novel herbicides, usage thereof, novel thienopyrimidine derivatives, intermediates of the same, and process for production thereof” (NIHON NOHYAKU CO., LTD.,, priority 2002, published 2007).

Tests used:
Assay type in all cases: in vivo
Chenopodium album = test: Field soil treatment test (Test Example 2); conditions: soil spray after seeding, wettable powder, active ingredient 10 g/a, 21st day from the treatment
Experimental: (§1) The herbicidal effect was evaluated in terms of herbicidal rate obtained from the following equation: Herbicidal rate (%)=[1−(Weight of weeds above the ground in a treated plot)/(Weight of weeds above the ground in a non-treated plot)]×100 and was expressed by herbicidal index according to the following criteria. [table] Alluvial soil from a field was put in a resin-made vat having an area of 200 cm^2. After fertilization, the seeds of Digitaria ciliaris, Chenopodium album and Polygonum lapathifolium were cast on the soil and uniformly covered with the soil. The wettable powder obtained in Formulation Example 1 was diluted with water and a predetermined amount thereof was sprayed uniformly to the soil by means of a small-sized power pressure spray so as to give 10 g of the active ingredient per an are. Thereafter, cultivation was further continued in the greenhouse, and the herbicidal effect was examined on the 21st day from the treatment. The results obtained are shown in Table 8 (the compound numbers in Table 8 correspond to those in Tables 1 to 6).

Digitaria ciliaris = test: Field soil treatment test (Test Example 2); conditions: soil spray after seeding, wettable powder, active ingredient 10 g/a, 21st day from the treatment
Experimental: as §1

Polygonum lapathifolium = test: Field soil treatment test (Test Example 2); conditions: soil spray after seeding, wettable powder, active ingredient 10 g/a, 21st day from the treatment
Experimental: as §1

Echinochloa oryzicola = test: Submerged foliar treatment test (Test Example 3); conditions: water depth 3 cm, cotyledon to 1-leaf stage, wettable powder, active ingredient 10 g/a, 28th day from the treatment
Experimental: (§2) The herbicidal effect was evaluated in terms of herbicidal rate obtained from the following equation: Herbicidal rate (%)=[1−(Weight of weeds above the ground in a treated plot)/(Weight of weeds above the ground in a non-treated plot)]×100
(§3) and was expressed by herbicidal index according to the following criteria.
(§4) Alluvial soil from a paddy field was put in a resin-made vat having an area of 200 cm^2. After fertilization, seeds of Echinochloa oryzicola, Rotala indica and Scirpus juncoides were cast on the soil and uniformly covered with the soil, and water was poured onto the soil to keep a water depth of 3 cm. Then, cultivation was continued in a greenhouse, and when the weeds to be tested reached the cotyledon stage to 1-leaf stage, the wettable powder obtained in Formulation Example 1 was diluted with water and a predetermined amount thereof was added dropwise uniformly to the weeds by means of a pipette to give 10 g of the active ingredient per an are. Thereafter, cultivation was further continued in the greenhouse, and the herbicidal effect was examined on the 28th day from the treatment. The results obtained are shown in Table 9 (the compound numbers in Table 9 correspond to those in Tables 1 to 6).

Scirpus juncoides = test: Submerged foliar treatment test (Test Example 3); conditions: water depth 3 cm, cotyledon to 1-leaf stage, wettable powder, active ingredient 10 g/a, 28th day from the treatment
Experimental: as §2, §3, §4

Rotala indica = test: Submerged foliar treatment test (Test Example 3); conditions: water depth 3 cm, cotyledon to 1-leaf stage, wettable powder, active ingredient 10 g/a, 28th day from the treatment
Experimental: as §2, §3, §4

| Compound | Herbicidal effect Chenopodium album (herbicidal index) (Chenopodium album) | Herbicidal effect Digitaria ciliaris (herbicidal index) (Digitaria ciliaris) | Herbicidal effect Polygonum lapathifolium (herbicidal index) (Polygonum lapathifolium) | Herbicidal effect Echinochloa oryzicola (herbicidal index) (Echinochloa oryzicola) | Herbicidal effect Scirpus juncoides (herbicidal index) (Scirpus juncoides) | Herbicidal effect Rotala indica (herbicidal index) (Rotala indica) |
| --- | --- | --- | --- | --- | --- | --- |
| Cc1cc2c(-c3cccc(C(F)(F)F)c3)nc(OC(C)(C)C)nc2s1 [6-27] | 5 (91 to 100) | 5 (91 to 100) | 4 (71 to 90) | – | – | – |
| Cc1cc2c(-c3ccc(F)c(C(F)(F)F)c3)nc(OC(C)C)nc2s1 [6-30] | 5 (91 to 100) | 5 (91 to 100) | 5 (91 to 100) | – | – | – |
| Cc1cc2c(-c3cccc(OC(F)(F)F)c3)nc(OC(C)C)nc2s1 [6-36] | 5 (91 to 100) | 5 (91 to 100) | 5 (91 to 100) | – | – | – |
| CCOc1nc(-c2ccccc2C(F)(F)F)c2cc(C)sc2n1 [6-43] | 5 (91 to 100) | 5 (91 to 100) | 2 (31 to 50) | – | – | – |
| C=CCOc1nc(-c2cccc(C(F)(F)F)c2)c2cc(C)sc2n1 [6-88] | 5 (91 to 100) | 5 (91 to 100) | 5 (91 to 100) | – | – | – |
| Cc1cc2c(-c3cccc(C(F)(F)F)c3)nc(OC(C)C(F)(F)F)nc2s1 (stereo not drawn) [6-100] | 5 (91 to 100) | 5 (91 to 100) | 5 (91 to 100) | – | – | – |
| Cc1cc2c(-c3cccc(C(F)(F)F)c3)nc(OCC(F)(F)C(F)(F)F)nc2s1 [6-101] | 5 (91 to 100) | 5 (91 to 100) | 4 (71 to 90) | – | – | – |
| Cc1cc2c(-c3cccc(C(F)(F)F)c3)nc(OCC(F)(F)C(F)F)nc2s1 [6-103] | 5 (91 to 100) | 5 (91 to 100) | 5 (91 to 100) | – | – | – |
| Cc1cc2c(-c3cccc(OC(F)(F)F)c3)nc(OCCF)nc2s1 [6-107] | 5 (91 to 100) | 5 (91 to 100) | 5 (91 to 100) | – | – | – |
| Cc1cc2c(-c3cccc(OC(F)(F)F)c3)nc(OCC(F)(F)F)nc2s1 [6-108] | 5 (91 to 100) | 5 (91 to 100) | 5 (91 to 100) | – | – | – |
| Cc1cc2c(-c3cccc(OC(F)(F)F)c3)nc(OC(C)C(F)(F)F)nc2s1 (stereo not drawn) [6-110] | 5 (91 to 100) | 5 (91 to 100) | 5 (91 to 100) | – | – | – |
| Cc1cc2c(-c3cccc(OC(F)(F)F)c3)nc(OCC(F)(F)C(F)(F)F)nc2s1 [6-111] | 5 (91 to 100) | 5 (91 to 100) | 5 (91 to 100) | – | – | – |
| Cc1cc2c(-c3cccc(SC(F)(F)F)c3)nc(OCC(F)(F)C(F)F)nc2s1 [6-119] | 5 (91 to 100) | 5 (91 to 100) | 5 (91 to 100) | – | – | – |
| Cc1cc2c(-n3ccc(C(F)(F)F)n3)nc(-n3ccc(C(F)(F)F)n3)nc2s1 [6-200] | – | – | – | 3 (51 to 70) | 3 (51 to 70) | 5 (91 to 100) |
| Cc1cc2c(Oc3cccc(C(F)(F)F)c3)nc(-n3ccc(C(F)(F)F)n3)nc2s1 [6-201] | – | – | – | 5 (91 to 100) | 3 (51 to 70) | 5 (91 to 100) |
| Cc1cc2c(-c3ccccc3C(F)(F)F)nc(Cl)nc2s1 [Compound No. 5-3] | – | – | – | 5 (91 to 100) | 3 (51 to 70) | 5 (91 to 100) |
